Data: ChEMBL document CHEMBL3875177, “Design, synthesis and biological evaluation of [1,2,3]triazolo[4,5-d]pyrimidine derivatives possessing a hydrazone moiety as antiproliferative agents” (Eur J Med Chem, 2016)
The source made the active and inactive calls. The calls are words filed in the database; no cut-off is given here.

Experiments:
[1] = (§1) Antiproliferative activity against human MGC803 cells after 72 hrs by MTT assay; assay type: functional, cell-based; settings: MGC-803, 72 h
[2] = Antiproliferative activity against human MCF7 cells after 72 hrs by MTT assay; assay type: functional, cell-based; settings: MCF7, 72 h
[3] = Antiproliferative activity against human EC109 cells after 72 hrs by MTT assay; assay type: functional, cell-based; settings: ECa-109, 72 h
[4] = Antiproliferative activity against human GES-1 cells after 72 hrs by MTT assay; assay type: cell-based; settings: GES1, 72 h
[5] = tested on: MGC-803; test: as §1; assay type: functional, cell-based
[6] = Inhibition of colony formation in human MGC803 cells assessed as reduction in foci formation at 0.8 uM after 10 days by crystal violet staining based assay relative to control; assay type: functional; settings: MGC-803, 240 h
[7] = tested on: MGC-803; test: Induction of apoptosis in human MGC803 cells assessed as cell rounding at 1 to 4 uM after 24 hrs by Hoechst 33258 staining based fluorescence microscopic method; assay type: functional
[8] = tested on: MGC-803; test: Induction of apoptosis in human MGC803 cells assessed as chromatin shrinkage at 1 to 4 uM after 24 hrs by Hoechst 33258 staining based fluorescence microscopic method; assay type: functional, cell-based
[9] = tested on: MGC-803; test: Induction of apoptosis in human MGC803 cells assessed as formation of apoptotic bodies at 1 to 4 uM after 24 hrs by Hoechst 33258 staining based fluorescence microscopic method; assay type: functional, cell-based
[10] = tested on: MGC-803; test: Induction of apoptosis in human MGC803 cells after 24 hrs by Annexin-V FITC/propidium iodide staining based flow cytometry; assay type: functional, cell-based
[11] = tested on: MGC-803; test: Induction of apoptosis in human MGC803 cells at 1 uM after 24 hrs by Annexin-V FITC/propidium iodide staining based flow cytometry (reference value: 1.8%); assay type: functional
[12] = tested on: MGC-803; test: Induction of apoptosis in human MGC803 cells at 2 uM after 24 hrs by Annexin-V FITC/propidium iodide staining based flow cytometry (reference value: 1.8%); assay type: functional
[13] = tested on: MGC-803; test: Induction of apoptosis in human MGC803 cells at 4 uM after 24 hrs by Annexin-V FITC/propidium iodide staining based flow cytometry (reference value: 1.8%); assay type: functional
[14] = tested on: MGC-803; test: Induction of mitochondrial membrane potential loss in human MGC803 cells at 4 uM after 24 hrs by JC-1 staining based flow cytometry (reference value: 49.8%); assay type: functional
[15] = tested on: MGC-803; test: Induction of mitochondrial membrane potential loss in human MGC803 cells after 24 hrs by JC-1 staining based flow cytometry; assay type: functional, cell-based
[16] = tested on: MGC-803; test: Induction of apoptosis in human MGC803 cells assessed as increase in Bax protein expression after 24 hrs by Western blot method; assay type: functional, cell-based
[17] = tested on: MGC-803; test: Induction of apoptosis in human MGC803 cells assessed as increase in Bak protein expression after 24 hrs by Western blot method; assay type: functional, cell-based
[18] = tested on: MGC-803; test: Induction of apoptosis in human MGC803 cells assessed as increase in PUMA protein expression after 24 hrs by Western blot method; assay type: functional, cell-based
[19] = tested on: MGC-803; test: Induction of apoptosis in human MGC803 cells assessed as decrease in Bcl2 protein expression at 1 to 4 uM after 24 hrs by Western blot method; assay type: functional, cell-based
[20] = tested on: MGC-803; test: Induction of apoptosis in human MGC803 cells assessed as decrease in Mcl1 protein expression at 1 to 4 uM after 24 hrs by Western blot method; assay type: functional, cell-based
[21] = tested on: MGC-803; test: Induction of apoptosis in human MGC803 cells assessed as increase in caspase-3 protein expression at 1 to 4 uM after 24 hrs by Western blot method; assay type: functional, cell-based
[22] = tested on: MGC-803; test: Induction of apoptosis in human MGC803 cells assessed as increase in caspase-9 protein expression at 1 to 4 uM after 24 hrs by Western blot method; assay type: functional, cell-based
[23] = target: Lysine-specific histone demethylase 1A (Homo sapiens) (UniProt O60341); test: Inhibition of LSD1 (unknown origin) at 10 uM relative to control

Structure (SMILES): CCCSc1nc(N/N=C/c2cccnc2)c2nnn(Cc3ccccc3)c2n1
- IC50 [1]: 38.1 µM
- IC50 [2]: 58.7 µM
- IC50 [3]: > 64 µM

Structure (SMILES): CCCSc1nc(N/N=C(\C)c2ccccc2O)c2nnn(Cc3ccc(Br)cc3)c2n1
- IC50 [1]: 11.3 µM
- IC50 [2]: 15.6 µM
- IC50 [3]: 36.1 µM

Structure (SMILES): CCCSc1nc(N/N=C(\C)c2ccccc2O)c2nnn(Cc3ccccc3)c2n1
- IC50 [1]: 2.31 µM
- IC50 [2]: 11 µM
- IC50 [3]: 11.1 µM
- IC50 [4]: 32.3 µM

Structure (SMILES): CCCSc1nc(N/N=C/c2ccccc2F)c2nnn(Cc3ccccc3)c2n1
- IC50 [1]: > 64 µM
- IC50 [2]: > 64 µM
- IC50 [3]: > 64 µM

Structure (SMILES): CCCSc1nc(N/N=C/c2ccc3ccccc3c2)c2nnn(Cc3ccccc3)c2n1
- IC50 [1]: > 64 µM
- IC50 [2]: > 64 µM
- IC50 [3]: > 64 µM

Structure (SMILES): CCCSc1nc(N/N=C/c2ccc(Cl)cc2)c2nnn(Cc3ccccc3)c2n1
- IC50 [1]: > 64 µM
- IC50 [2]: > 64 µM
- IC50 [3]: > 64 µM

Structure (SMILES): CCCSc1nc(N/N=C(\C)c2ccccc2O)c2nnn(Cc3ccc(F)cc3)c2n1
- IC50 [1]: 11 µM
- IC50 [2]: > 64 µM
- IC50 [3]: 21.9 µM

Structure (SMILES): CCCSc1nc(N/N=C(\C)c2ccccc2O)c2nnn(Cc3ccco3)c2n1
- IC50 [1]: 4.76 µM
- IC50 [2]: 29 µM
- IC50 [3]: 5.76 µM
- IC50 [4]: 33.3 µM

Structure (SMILES): C/C(=N\Nc1nc(SCc2ccccc2)nc2c1nnn2Cc1ccccc1)c1ccccc1O
- IC50 [1]: 0.85 µM
- Activity [5]: Dose-dependent effect
- IC50 [2]: 0.95 µM
- IC50 [3]: 1.77 µM
- IC50 [4]: 56.2 µM
- inhibition at 0.8 µM [6]: 83%
- Activity [7]: Active
- Activity [8]: Active
- Activity [9]: Active
- Activity [10]: Dose-dependent effect
- Activity [11]: <=8.7%
- Activity [12]: <=24.8%
- Activity [13]: <=53.9%
- Activity [14]: <=90.4%
- Activity [15]: Dose-dependent effect
- Activity [16]: Dose-dependent effect
- Activity [17]: Dose-dependent effect
- Activity [18]: Dose-dependent effect
- Activity [19]: Active
- Activity [20]: Active
- Activity [21]: Active
- Activity [22]: Active
- inhibition [23]: 26.8%

Structure (SMILES): CCCSc1nc(N/N=C/c2ccc([N+](=O)[O-])cc2)c2nnn(Cc3ccccc3)c2n1
- IC50 [1]: 10.1 µM
- IC50 [2]: 11 µM
- IC50 [3]: 6.64 µM

Structure (SMILES): CCCSc1nc(N/N=C(\C)c2ccccc2O)c2nnn(CCO)c2n1
- IC50 [1]: 47.1 µM
- IC50 [2]: > 64 µM
- IC50 [3]: 60.3 µM

Structure (SMILES): CCCSc1nc(N/N=C/c2c(O)ccc3ccccc23)c2nnn(Cc3ccccc3)c2n1
- IC50 [1]: 3.71 µM
- IC50 [2]: 6.4 µM
- IC50 [3]: 9.29 µM
- IC50 [4]: 13.1 µM

Structure (SMILES): O=c1[nH]cc(F)c(=O)[nH]1 [FLUOROURACIL]
- IC50 [1]: 7.35 µM
- IC50 [2]: 9.25 µM
- IC50 [3]: 10.6 µM

Structure (SMILES): CCCSc1nc(N/N=C(\C)c2ccccc2O)c2nnn(Cc3cccc(Cl)c3)c2n1
- IC50 [1]: 6.5 µM
- IC50 [2]: 39.9 µM
- IC50 [3]: 13 µM

Structure (SMILES): C#CCSc1nc(N/N=C(\C)c2ccccc2O)c2nnn(Cc3ccccc3)c2n1
- IC50 [1]: 3.82 µM
- IC50 [2]: 11.2 µM
- IC50 [3]: 5.25 µM

Structure (SMILES): CCCSc1nc(N/N=C(\C)c2ccccc2O)c2nnn(Cc3ccccc3Cl)c2n1
- IC50 [1]: 35 µM
- IC50 [2]: > 64 µM
- IC50 [3]: > 64 µM

Structure (SMILES): CCCSc1nc(N/N=C/c2ccc(C)cc2)c2nnn(Cc3ccccc3)c2n1
- IC50 [1]: > 64 µM
- IC50 [2]: > 64 µM
- IC50 [3]: > 64 µM

Structure (SMILES): CCCSc1nc(N/N=C/c2cc(OC)c(OC)c(OC)c2)c2nnn(Cc3ccccc3)c2n1
- IC50 [1]: 9.41 µM
- IC50 [2]: > 64 µM
- IC50 [3]: 4.06 µM
- IC50 [4]: > 64 µM

Structure (SMILES): C#CCSc1nc(N/N=C/c2ccc(N(C)C)cc2)c2nnn(Cc3ccccc3)c2n1
- IC50 [1]: 7.62 µM
- IC50 [2]: > 64 µM
- IC50 [3]: 31.2 µM

Structure (SMILES): COc1cc(/C=N/Nc2nc(SCc3ccccc3)nc3c2nnn3Cc2ccccc2)cc(OC)c1OC
- IC50 [1]: 1.32 µM
- IC50 [2]: 13.5 µM
- IC50 [3]: 4.4 µM
- IC50 [4]: 48.3 µM

Structure (SMILES): C#CCSc1nc(N/N=C/c2c(O)ccc3ccccc23)c2nnn(Cc3ccccc3)c2n1
- IC50 [1]: 10.5 µM
- IC50 [2]: 8.97 µM
- IC50 [3]: 6.52 µM

Structure (SMILES): CCCSc1nc(N/N=C/c2c[nH]c3ccccc23)c2nnn(Cc3ccccc3)c2n1
- IC50 [1]: 7.41 µM
- IC50 [2]: 9.01 µM
- IC50 [3]: 8.69 µM

Structure (SMILES): CCCSc1nc(N/N=C/c2ccc(N(C)C)cc2)c2nnn(Cc3ccccc3)c2n1
- IC50 [1]: 13.1 µM
- IC50 [2]: 12.2 µM
- IC50 [3]: 20 µM

Structure (SMILES): CCCSc1nc(N/N=C(\C)c2ccc(Br)cc2)c2nnn(Cc3ccccc3)c2n1
- IC50 [1]: 6.02 µM
- IC50 [2]: 13 µM
- IC50 [3]: 4.67 µM

Structure (SMILES): CCCSc1nc(N/N=C/c2cccc(Cl)c2)c2nnn(Cc3ccccc3)c2n1
- IC50 [1]: > 64 µM
- IC50 [2]: > 64 µM
- IC50 [3]: > 64 µM

Structure (SMILES): CCCSc1nc(N/N=C/c2ccccc2)c2nnn(Cc3ccccc3)c2n1
- IC50 [1]: > 64 µM
- IC50 [2]: > 64 µM
- IC50 [3]: > 64 µM

Structure (SMILES): CCCSc1nc(N/N=C/c2ccc(Br)cc2)c2nnn(Cc3ccccc3)c2n1
- IC50 [1]: 34.9 µM
- IC50 [2]: > 64 µM
- IC50 [3]: > 64 µM

Structure (SMILES): CCCSc1nc(N/N=C(\C)c2ccccc2)c2nnn(Cc3ccccc3)c2n1
- IC50 [1]: 25.4 µM
- IC50 [2]: 32.1 µM
- IC50 [3]: 32.2 µM

Structure (SMILES): C#CCSc1nc(N/N=C/c2cc(OC)c(OC)c(OC)c2)c2nnn(Cc3ccccc3)c2n1
- IC50 [1]: 4.67 µM
- IC50 [2]: 17 µM
- IC50 [3]: 6.54 µM
- IC50 [4]: 25.6 µM

Structure (SMILES): CCCSc1nc(N/N=C(\C)c2ccc(O)cc2)c2nnn(Cc3ccccc3)c2n1
- IC50 [1]: 16.7 µM
- IC50 [2]: 21.6 µM
- IC50 [3]: 32.5 µM

Structure (SMILES): CCCSc1nc(N/N=C(\C)c2ccc(OC)cc2)c2nnn(Cc3ccccc3)c2n1
- IC50 [1]: 44.3 µM
- IC50 [2]: > 64 µM
- IC50 [3]: > 64 µM

Structure (SMILES): CCCSc1nc(N/N=C(\C)c2ccccc2O)c2nnn(CCc3cccs3)c2n1
- IC50 [1]: 16.4 µM
- IC50 [2]: > 64 µM
- IC50 [3]: 30.9 µM

Structure (SMILES): CCCSc1nc(N/N=C(\C)c2ccccc2O)c2nnn(Cc3ccc(O)cc3)c2n1
- IC50 [1]: 7.68 µM
- IC50 [2]: 9.52 µM
- IC50 [3]: 15.9 µM

Structure (SMILES): CCCSc1nc(N/N=C/c2cccs2)c2nnn(Cc3ccccc3)c2n1
- IC50 [1]: > 64 µM
- IC50 [2]: > 64 µM
- IC50 [3]: > 64 µM

Structure (SMILES): CCCSc1nc(N/N=C(\C)c2ccccc2O)c2nnn(Cc3ccc(Cl)cc3)c2n1
- IC50 [1]: 7.1 µM
- IC50 [2]: 42.6 µM
- IC50 [3]: 11.2 µM

Structure (SMILES): CCCSc1nc(N/N=C/c2ccccc2Cl)c2nnn(Cc3ccccc3)c2n1
- IC50 [1]: 10.9 µM
- IC50 [2]: 13.8 µM
- IC50 [3]: 6.18 µM
